Assay results published in patent publication US10213486B2, “Formulations of diluted amino acid segments and methods for making same” (priority 2011, dated 2019).
In brackets after ≈: the same amount, converted by molar mass. Peptide text beside a SMILES is read from it.

Test: physchem
Text: The segments were synthesized at a cGMP facility using standard techniques for amino acid synthesis.

`CC[C@H](C)[C@H](NC(=O)[C@@H]1CCCN1C(=O)[C@H](C)NC(=O)CNC(=O)[C@@H]1CCCN1C(=O)[C@H](CCC(N)=O)NC(=O)[C@H](CO)NC(=O)[C@H](Cc1ccccc1)NC(=O)[C@H](Cc1ccccc1)NC(=O)[C@@H]1CCCN1C(=O)[C@H](CC(N)=O)NC(=O)[C@H](CCC(=O)O)NC(=O)[C@H](CCC(N)=O)NC(=O)[C@H](CC(C)C)NC(=O)[C@@H](NC(=O)[C@H](CS)NC(=O)[C@H](CCC(=O)O)NC(=O)[C@@H]1CCCN1C(=O)[C@H](CS)NC(=O)[C@H](CC(=O)O)NC(=O)[C@H](CCC(N)=O)NC(=O)[C@@H](NC(=O)[C@H](CC(=O)O)NC(=O)[C@@H]1CCCN1C(=O)[C@H](C)N)C(C)C)[C@@H](C)O)C(=O)O` [first amino acid segment] (H-APDVQDCPECTLQENPFFSQPGAPI-OH) showed a solubility of 1000 µg/mL (≈ 370 µM).
